Reference: PubChem BioAssay AID256 (DTP/NCI, 2004)
Toxic doses and inconclusive results are not listed.

System: CD2F1 mice, L1210 leukemia ip, survival T/C
Experiment: NCI In Vivo Anticancer Drug Screen. Data for tumor model L1210 Leukemia (intraperitoneal) in CD2F1 (CDF1) mice
Conditions: higher = longer survival
Outline: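 Implant tumor; dose compound or vehicle; measure endpoint in both groups; report treated divided by control.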

[1] = endpoint: mean survival time, dose: 100.0 mg/kg/injection, schedule: Q01DX009 (ip), vehicle: saline with Tween-80
[2] = endpoint: mean survival time, dose: 100.0 mg/kg/injection, schedule: Q04DX003 (ip), vehicle: saline with Tween-80
[3] = endpoint: mean survival time, dose: 200.0 mg/kg/injection, schedule: Q01DX009 (ip), vehicle: saline with Tween-80
[4] = endpoint: mean survival time, dose: 200.0 mg/kg/injection, schedule: Q04DX003 (ip), vehicle: saline with Tween-80
[5] = endpoint: mean survival time, dose: 400.0 mg/kg/injection, schedule: Q01DX009 (ip), vehicle: saline with Tween-80
[6] = endpoint: mean survival time, dose: 400.0 mg/kg/injection, schedule: Q04DX003 (ip), vehicle: saline with Tween-80
[7] = endpoint: mean survival time, dose: 100.0 mg/kg/injection, schedule: Q01DX001 (ip), vehicle: saline with Tween-80
[8] = endpoint: mean survival time, dose: 200.0 mg/kg/injection, schedule: Q01DX001 (ip), vehicle: saline with Tween-80
[9] = endpoint: mean survival time, dose: 50.0 mg/kg/injection, schedule: Q01DX009 (ip), vehicle: saline with Tween-80
[10] = endpoint: mean survival time, dose: 100.0 mg/kg/injection, schedule: Q01DX001 (ip), vehicle: saline
[11] = endpoint: mean survival time, dose: 200.0 mg/kg/injection, schedule: Q01DX001 (ip), vehicle: saline
[12] = endpoint: mean survival time, dose: 400.0 mg/kg/injection, schedule: Q01DX001 (ip), vehicle: saline
[13] = endpoint: mean survival time, dose: 100.0 mg/kg/injection, schedule: Q01DX001 (ip), vehicle: Klucel (hydroxypropylcellulose) (HPC)
[14] = endpoint: mean survival time, dose: 200.0 mg/kg/injection, schedule: Q01DX001 (ip), vehicle: Klucel (hydroxypropylcellulose) (HPC)
[15] = endpoint: mean survival time, dose: 400.0 mg/kg/injection, schedule: Q01DX001 (ip), vehicle: Klucel (hydroxypropylcellulose) (HPC)

Br/C1=C/CCCCCC1
T/C (endpoint: mean survival time, dose: 37.5 mg/kg/injection, schedule: Q01DX009 (ip), vehicle: saline): 94 % of control
T/C (endpoint: mean survival time, dose: 75.0 mg/kg/injection, schedule: Q01DX009 (ip), vehicle: saline): 94 % of control
T/C (endpoint: mean survival time, dose: 150.0 mg/kg/injection, schedule: Q01DX009 (ip), vehicle: saline): 104 % of control

CC(=O)Oc1cc2c(cc1C(C)C)CCC1C(C)(C#N)CCCC21C (configuration not stated)
T/C [1]: 90 % of control
T/C [2]: 89 % of control
T/C [3]: 95 % of control
T/C [4]: 87 % of control
T/C [5]: 92 % of control
T/C [6]: 98 % of control

CCC(C)CC(C)C1=NC(C)(C)CC(C)O1 (configuration not stated)
T/C [7]: 104 % of control
T/C [8]: 90 % of control

CCC1(CC)C(=O)C=CNC1=O
T/C [9]: 100 % of control
T/C [1]: 94 % of control
T/C [3]: 103 % of control

CC(C)(C)OC(=O)NCCCCC(NC(=O)OC(C)(C)C)C(=O)O (configuration not stated)
T/C [10]: 100 % of control
T/C [11]: 110 % of control
T/C [12]: 97 % of control

CC(CO)CCC1OC2CC3C4CCC5CC(O)CCC5(C)C4CCC3(C)C2C1C (configuration not stated)
T/C [7]: 95 % of control
T/C [8]: 94 % of control

CCC1(O)C(=O)OCc2c1cc1n(c2=O)Cc2cc3ccc(C(F)(F)F)cc3nc2-1 (configuration not stated)
T/C (endpoint: median survival time, dose: 10.0 mg/kg/injection, schedule: Q04DX002 (ip), vehicle: saline with Tween-80): 103 % of control
T/C (endpoint: median survival time, dose: 20.0 mg/kg/injection, schedule: Q04DX002 (ip), vehicle: saline with Tween-80): 100 % of control
T/C (endpoint: median survival time, dose: 40.0 mg/kg/injection, schedule: Q04DX002 (ip), vehicle: saline with Tween-80): 104 % of control
T/C (endpoint: median survival time, dose: 80.0 mg/kg/injection, schedule: Q04DX002 (ip), vehicle: saline with Tween-80): 104 % of control

CCOc1ccc(N=Cc2ccccc2O)cc1
T/C [7]: 94 % of control
T/C [8]: 94 % of control
T/C (endpoint: mean survival time, dose: 400.0 mg/kg/injection, schedule: Q01DX001 (ip), vehicle: saline with Tween-80): 87 % of control

O=C1C2C3C=CC(C3)C2C(=NS(=O)(=O)c2ccccc2)C2C3C=CC(C3)C12 (configuration not stated)
T/C (endpoint: mean survival time, dose: 100.0 mg/kg/injection, schedule: Q04DX003 (ip), vehicle: Klucel (hydroxypropylcellulose) (HPC)): 91 % of control
T/C (endpoint: mean survival time, dose: 200.0 mg/kg/injection, schedule: Q04DX003 (ip), vehicle: Klucel (hydroxypropylcellulose) (HPC)): 93 % of control
T/C (endpoint: mean survival time, dose: 400.0 mg/kg/injection, schedule: Q04DX003 (ip), vehicle: Klucel (hydroxypropylcellulose) (HPC)): 91 % of control

O=C(Nc1ccc2c(c1)Cc1cc(Br)ccc1-2)C(F)(F)F
T/C [2]: 101 % of control
T/C [4]: 97 % of control
T/C [6]: 101 % of control

OCC1OC(n2cnc3c(SSc4ncnc5c4ncn5C4OC(CO)C(O)C4O)ncnc32)C(O)C1O (configuration not stated)
T/C (endpoint: mean survival time, dose: 178.0 mg/kg/injection, schedule: Q01DX009 (ip), vehicle: saline): 115 % of control
T/C (endpoint: mean survival time, dose: 400.0 mg/kg/injection, schedule: Q01DX009 (ip), vehicle: saline): 150 % of control

CSc1nc2c(c(=O)[nH]1)c1c(N)ncnc1n2C1OC(CO)C(O)C1O (configuration not stated)
T/C (endpoint: mean survival time, dose: 25.0 mg/kg/injection, schedule: Q01DX005 (ip), vehicle: water): 88 % of control
T/C (endpoint: mean survival time, dose: 50.0 mg/kg/injection, schedule: Q01DX005 (ip), vehicle: water): 94 % of control
T/C (endpoint: mean survival time, dose: 100.0 mg/kg/injection, schedule: Q01DX005 (ip), vehicle: water): 88 % of control
T/C (endpoint: mean survival time, dose: 200.0 mg/kg/injection, schedule: Q01DX005 (ip), vehicle: water): 100 % of control

CN1CCC(COC(=O)C(O)(c2ccccc2)c2ccccc2)C1 (configuration not stated)
T/C (endpoint: mean survival time, dose: 25.0 mg/kg/injection, schedule: Q01DX009 (ip), vehicle: saline with Tween-80): 100 % of control
T/C [9]: 100 % of control
T/C [1]: 94 % of control

C[n+]1ccc(CCC(=O)Nc2ccccc2)cc1
T/C [2]: 100 % of control
T/C [4]: 100 % of control

CCOP(=O)(Cc1cccc2ccccc12)OCC
T/C [13]: 103 % of control
T/C [14]: 96 % of control
T/C [15]: 100 % of control

CCCN(CCC)S(=O)(=O)c1ccc(NC(=O)Oc2cc(C)ccc2C(C)C)cc1
T/C [10]: 100 % of control
T/C [11]: 95 % of control
T/C [12]: 94 % of control

NCC1CCC(C(=O)O)CC1 (configuration not stated)
T/C (endpoint: median survival time, dose: 12.5 mg/kg/injection, schedule: Q01DX009 (ip), vehicle: saline with Tween-80): 101 % of control
T/C (endpoint: median survival time, dose: 25.0 mg/kg/injection, schedule: Q01DX009 (ip), vehicle: saline with Tween-80): 101 % of control
T/C (endpoint: median survival time, dose: 50.0 mg/kg/injection, schedule: Q01DX005 (ip), vehicle: saline with Tween-80): 110 % of control
T/C (endpoint: median survival time, dose: 50.0 mg/kg/injection, schedule: Q01DX009 (ip), vehicle: saline with Tween-80): 100 % of control
T/C (endpoint: median survival time, dose: 100.0 mg/kg/injection, schedule: Q01DX005 (ip), vehicle: saline with Tween-80): 104 % of control
T/C (endpoint: median survival time, dose: 100.0 mg/kg/injection, schedule: Q01DX009 (ip), vehicle: saline with Tween-80): 101 % of control
T/C (endpoint: median survival time, dose: 200.0 mg/kg/injection, schedule: Q01DX005 (ip), vehicle: saline with Tween-80): 97 % of control
T/C (endpoint: median survival time, dose: 200.0 mg/kg/injection, schedule: Q01DX009 (ip), vehicle: saline with Tween-80): 100 % of control
T/C (endpoint: median survival time, dose: 400.0 mg/kg/injection, schedule: Q01DX005 (ip), vehicle: saline with Tween-80): 105 % of control
T/C (endpoint: median survival time, dose: 400.0 mg/kg/injection, schedule: Q01DX009 (ip), vehicle: saline with Tween-80): 100 % of control
T/C (endpoint: median survival time, dose: 800.0 mg/kg/injection, schedule: Q01DX005 (ip), vehicle: saline with Tween-80): 97 % of control

C/C(=N/NC(N)=S)c1ccc(NC(=O)C(Cl)Cl)cc1
T/C (endpoint: mean survival time, dose: 75.0 mg/kg/injection, schedule: Q01DX001 (ip), vehicle: saline): 100 % of control
T/C (endpoint: mean survival time, dose: 150.0 mg/kg/injection, schedule: Q01DX001 (ip), vehicle: saline): 96 % of control

O=c1c(Cl)cc(Cl)cn1S(=O)(=O)c1ccc([N+](=O)[O-])cc1
T/C [1]: 100 % of control
T/C [2]: 102 % of control
T/C [3]: 102 % of control
T/C [4]: 102 % of control
T/C [5]: 98 % of control
T/C [6]: 101 % of control

CC(O)CC(C)(C)S(=O)(=O)Cc1ccccc1 (configuration not stated)
T/C [13]: 101 % of control
T/C [14]: 86 % of control
T/C [15]: 93 % of control

O=[N+]([O-])c1cc(Cl)cc2c1NP(=S)(c1ccccc1)N2 (configuration not stated)
T/C (endpoint: mean survival time, dose: 25.0 mg/kg/injection, schedule: Q04DX002 (ip), vehicle: saline with Tween-80): 91 % of control
T/C (endpoint: mean survival time, dose: 50.0 mg/kg/injection, schedule: Q04DX002 (ip), vehicle: saline with Tween-80): 102 % of control
T/C (endpoint: mean survival time, dose: 100.0 mg/kg/injection, schedule: Q04DX002 (ip), vehicle: saline with Tween-80): 91 % of control
T/C (endpoint: mean survival time, dose: 200.0 mg/kg/injection, schedule: Q04DX002 (ip), vehicle: saline with Tween-80): 98 % of control

OC1CC2CC1C1C=CCC21 (configuration not stated)
T/C [9]: 95 % of control
T/C [1]: 98 % of control
T/C [2]: 93 % of control
T/C [3]: 93 % of control
T/C [4]: 93 % of control

C(CCSC1=NCCN1)CCSC1=NCCN1
T/C (endpoint: mean survival time, dose: 25.0 mg/kg/injection, schedule: Q01DX009 (ip), vehicle: saline): 97 % of control
T/C (endpoint: mean survival time, dose: 50.0 mg/kg/injection, schedule: Q01DX009 (ip), vehicle: saline): 103 % of control
T/C (endpoint: mean survival time, dose: 100.0 mg/kg/injection, schedule: Q01DX009 (ip), vehicle: saline): 100 % of control

O=C(NCCc1ccccc1)c1ccccc1
T/C [1]: 101 % of control
T/C [3]: 107 % of control
T/C [5]: 97 % of control

COC(=O)COc1cccc(NC(=O)CC(=O)c2cccc([N+](=O)[O-])c2)c1
T/C (endpoint: mean survival time, dose: 100.0 mg/kg/injection, schedule: Q01DX009 (ip), vehicle: Klucel (hydroxypropylcellulose) (HPC)): 98 % of control
T/C [2]: 101 % of control
T/C (endpoint: mean survival time, dose: 200.0 mg/kg/injection, schedule: Q01DX009 (ip), vehicle: Klucel (hydroxypropylcellulose) (HPC)): 97 % of control
T/C [4]: 98 % of control
T/C (endpoint: mean survival time, dose: 400.0 mg/kg/injection, schedule: Q01DX009 (ip), vehicle: Klucel (hydroxypropylcellulose) (HPC)): 96 % of control
T/C [6]: 93 % of control

Cc1cc(C)c(C)cc1C
T/C [1]: 92 % of control
T/C [2]: 96 % of control
T/C [3]: 96 % of control
T/C [4]: 100 % of control
T/C [5]: 88 % of control
T/C [6]: 94 % of control

COC(=O)c1cncc(C(=O)OC)c1
T/C [1]: 94 % of control
T/C [3]: 92 % of control
T/C [5]: 90 % of control

CCOC(=O)Nc1cc(NC(c2ccc(Cl)cc2)c2ccc(Cl)cc2)c2[nH]cnc2n1
T/C (endpoint: mean survival time, dose: 75.0 mg/kg/injection, schedule: Q01DX001 (ip), vehicle: other): 117 % of control
